Where “and” joins values, the source holds several entries; their conditions need not be identical. Identical values can stand only once.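 Assay format: 96-well plates, 48-hour exposure. Here, GI50 denotes the concentration required for 50% inhibition of growth. The concentration for full growth arrest is given as TGI.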
Experiments:
Test in all cases: NCI anticancer screen, dose series, 48 h
NCI-H522 lung = tested on: NCI-H522 lung
CCRF-CEM leukemia = tested on: CCRF-CEM leukemia
ACHN renal = tested on: ACHN renal
UACC-62 melanoma = tested on: UACC-62 melanoma
OVCAR-4 ovarian = tested on: OVCAR-4 ovarian
IGROV1 ovarian = tested on: IGROV1 ovarian
SF-539 CNS = tested on: SF-539 CNS
HCT-116 colon = tested on: HCT-116 colon
CAKI-1 renal = tested on: CAKI-1 renal
SNB-75 CNS = tested on: SNB-75 CNS

Molecule N=C1c2nc3n(c2C(=O)c2nc4n(c21)CCCC4)CCCC3 has a GI50 (NCI-H522 lung) of 4.17 µM, a TGI (NCI-H522 lung) of 26.1 µM and a GI50 (CCRF-CEM leukemia) of 20.5 µM. The TGI (CCRF-CEM leukemia) was greater than 100 µM, the GI50 (ACHN renal) was 20.5 µM and the TGI (ACHN renal) was greater than 100 µM. For the same molecule, the GI50 (UACC-62 melanoma) was 0.784 µM, the TGI (UACC-62 melanoma) was 2.04 µM and the GI50 (OVCAR-4 ovarian) was 24.7 µM. It also gave a TGI (OVCAR-4 ovarian) greater than 100 µM, a GI50 (IGROV1 ovarian) of 41.6 µM and a TGI (IGROV1 ovarian) greater than 100 µM. For the same molecule, the GI50 (SF-539 CNS) was 2.42 µM, the TGI (SF-539 CNS) was 5.2 µM and the GI50 (HCT-116 colon) was 19.8 µM. For the same molecule, the TGI (HCT-116 colon) was greater than 100 µM, the GI50 (CAKI-1 renal) was 19.1 µM and the TGI (CAKI-1 renal) was greater than 83.2 µM. For the same molecule, the GI50 (SNB-75 CNS) was 1.83 µM and the TGI (SNB-75 CNS) was 3.57 µM.
For CN(C)CCCN=C(N)N, the TGI (NCI-H522 lung) was greater than 100 µM, the TGI (CCRF-CEM leukemia) was greater than 100 µM and the TGI (ACHN renal) was greater than 100 µM. It also gave a TGI (UACC-62 melanoma) greater than 100 µM, a TGI (OVCAR-4 ovarian) greater than 100 µM and a TGI (IGROV1 ovarian) greater than 100 µM. It also gave a TGI (SF-539 CNS) greater than 100 µM, a TGI (HCT-116 colon) greater than 100 µM and a TGI (CAKI-1 renal) greater than 100 µM. The TGI (SNB-75 CNS) was greater than 100 µM.
In the case of c1ccc2[nH]c(SSc3nc4ncncc4[nH]3)nc2c1, the GI50 (NCI-H522 lung) is reported as 0.383 µM, the GI50 (CCRF-CEM leukemia) is reported as 1.37 µM and the TGI (CCRF-CEM leukemia) is reported as greater than 100 µM. The GI50 (ACHN renal) was 4.14 µM, the TGI (ACHN renal) was greater than 100 µM and the GI50 (UACC-62 melanoma) was 0.729 µM. For the same molecule, the TGI (UACC-62 melanoma) was greater than 100 µM, the GI50 (OVCAR-4 ovarian) was 3.64 µM and the TGI (OVCAR-4 ovarian) was greater than 100 µM. The GI50 (IGROV1 ovarian) was 4.48 µM, the TGI (IGROV1 ovarian) was 96.2 µM and the GI50 (SF-539 CNS) was 0.989 µM. It also gave a TGI (SF-539 CNS) greater than 100 µM, a GI50 (HCT-116 colon) of 0.913 µM and a TGI (HCT-116 colon) greater than 100 µM. For the same molecule, the GI50 (CAKI-1 renal) was 0.212 µM, the TGI (CAKI-1 renal) was 3.77 µM and the GI50 (SNB-75 CNS) was 13.1 µM. For the same molecule, the TGI (SNB-75 CNS) was greater than 100 µM.
N/N=C(\CC1OC(=O)c2ccccc21)c1ccco1 (centres undefined) showed a TGI (NCI-H522 lung) greater than 100 µM, a TGI (CCRF-CEM leukemia) greater than 100 µM and a TGI (ACHN renal) greater than 100 µM. It also gave a TGI (UACC-62 melanoma) greater than 100 µM, a TGI (OVCAR-4 ovarian) greater than 100 µM and a TGI (IGROV1 ovarian) greater than 100 µM. The TGI (SF-539 CNS) was greater than 100 µM, the TGI (HCT-116 colon) was greater than 100 µM and the TGI (CAKI-1 renal) was greater than 100 µM. It also gave a TGI (SNB-75 CNS) greater than 100 µM.
With COc1ccc(C2S/C(=C\c3cc(OC)c(OC)c(OC)c3)C(=O)N2NC(=O)Cc2ccccc2)cc1 (centres undefined) the TGI (NCI-H522 lung) was greater than 100 µM, the TGI (CCRF-CEM leukemia) was greater than 100 µM and the TGI (ACHN renal) was greater than 100 µM. It also gave a TGI (UACC-62 melanoma) greater than 100 µM, a TGI (OVCAR-4 ovarian) greater than 100 µM and a TGI (IGROV1 ovarian) greater than 100 µM. The TGI (SF-539 CNS) was greater than 100 µM, the TGI (HCT-116 colon) was greater than 100 µM and the TGI (CAKI-1 renal) was greater than 100 µM. The TGI (SNB-75 CNS) was greater than 100 µM.
COC1/C=C\C=C(/C)C(=O)Nc2cc3nc4ccc(Br)cc4oc-3c(c2=O)CC(C)CC(OC)C(O)C(C)/C=C(\C)C1OC(N)=O (centres undefined) was tested, and the GI50 (NCI-H522 lung) was 0.00141 µM, the TGI (NCI-H522 lung) was 0.142 µM and the GI50 (CCRF-CEM leukemia) was 0.00247 µM and 0.0182 µM. For the same molecule, the TGI (CCRF-CEM leukemia) was 1.9 µM, the GI50 (ACHN renal) was 0.00459 µM and the TGI (ACHN renal) was 15.6 µM. It also gave a GI50 (UACC-62 melanoma) of 0.00162 µM, a TGI (OVCAR-4 ovarian) of 3.97 µM and a GI50 (IGROV1 ovarian) of 0.00312 µM. It also gave a TGI (IGROV1 ovarian) of 19.2 µM, a GI50 (SF-539 CNS) of 0.00745 µM and a TGI (SF-539 CNS) of 11.3 µM. For the same molecule, the GI50 (HCT-116 colon) was 0.00083 µM, the TGI (HCT-116 colon) was 4.92 µM and the TGI (CAKI-1 renal) was 16.3 µM. For the same molecule, the TGI (SNB-75 CNS) was 23.8 µM.
CCN1C(=O)N(CC)C2C1NN=c1s/c(=C3\C(=O)N(CC(C)C)c4ccccc43)c(=O)n12 (centres undefined) was tested, and the GI50 (NCI-H522 lung) was 0.4 µM, the GI50 (CCRF-CEM leukemia) was 0.464 µM and the TGI (CCRF-CEM leukemia) was greater than 100 µM. The GI50 (ACHN renal) was 0.723 µM, the TGI (ACHN renal) was greater than 45 µM and the GI50 (UACC-62 melanoma) was 0.603 µM. For the same molecule, the TGI (UACC-62 melanoma) was 65.5 µM, the GI50 (OVCAR-4 ovarian) was 1.23 µM and the TGI (OVCAR-4 ovarian) was greater than 100 µM. It also gave a GI50 (IGROV1 ovarian) of 0.808 µM, a TGI (IGROV1 ovarian) greater than 55.7 µM and a GI50 (SF-539 CNS) of 0.327 µM. The TGI (SF-539 CNS) was 1.66 µM, the GI50 (HCT-116 colon) was 0.441 µM and the TGI (HCT-116 colon) was greater than 100 µM. The GI50 (CAKI-1 renal) was 0.522 µM, the TGI (CAKI-1 renal) was greater than 100 µM and the GI50 (SNB-75 CNS) was 0.268 µM. The TGI (SNB-75 CNS) was 3.82 µM.
